Results taken from patent publication US7666354B2, “Composition for sterilization comprising ω-alkoxyperoxycarboxylic acid” (FUJIFILM Corporation, priority 2004, dated 2010).
Where two headings read alike, the source gives them in different places.

Columns and labels:
spores = details: recently reported; cited from earlier work
[1] = cited from earlier work
[2] = system: Spores of Bacillus subtilis IFO3134; experiment: Evaluation of antimicrobial activity against spores (liquid culture and agar culture after a given reaction time); type: cell-based; details: for colony formation, 15 sec / colony formation, 1 min / colony formation, 5 min: Agar culture; for colony formation, 15 sec / bacterial proliferation, 15 sec: reaction time 15 sec; for colony formation, 1 min / bacterial proliferation, 1 min: reaction time 1 min; for colony formation, 5 min / bacterial proliferation, 5 min: reaction time 5 min; for bacterial proliferation, 15 sec / bacterial proliferation, 1 min / bacterial proliferation, 5 min: Liquid culture
Description: Antimicrobial activity of the composition of the present invention against spores was evaluated.
Spores of Bacillus subtilis IFO3134 was prepared based on the preparation method of a spores stock solution described in Notification from Ministry of Health, Labour and Welfare, “Ei-nyu(Milk Hygiene)” No. 10, Jan. 29, 1996 (Heisei 8). […] The bacteria were suspended in sterilized water (3 ml), and the suspension was heated at 65° C. for 30 minutes under shaking at 160 rpm to kill trophozoites. Resulting suspension was centrifuged at 3000 rpm, and the supernatant was discarded. Sterilized water (3 ml) was added to the residue to obtain a stock solution of spores. A solution of 1.1×10^9 cfu/mL was prepared using the stock solution and subjected to the following evaluations of antimicrobial activity.
Evaluation of antimicrobial activity was conducted according to the method of Sakagami et al. (J. Antibact. Antifung. Agents., Vol. 26, 605-601, 1998). Specifically, an aqueous solution (225 μl) of each sample which was filtered with 0.2 μm paper filter was added with spores suspension (25 μl) prepared by the above described method. The mixture (concentration of bacteria: 1.1×10^8 cfu/mL) was reacted for a given period of time. From the reaction solution, 2 μL sample was corrected and added to 2 ml of SCDLP culture medium (Nissui Pharmaceutical Co., Ltd.). The medium was cultured at 37° C. under shaking at 160 rpm for 48 hours, and the presence of bacterial growth was examined. At the same time, the reaction solution (25 μL) was added to a mixture solution (225 μL) of 0.1N sodium thiosulfate and 1% catalase to inactivate a peroxycarboxylic acid and hydrogen peroxide. Resulting solution (100 μL) was inoculated to SCDLP culture agar medium (Nissui Pharmaceutical Co., Ltd., 25 mL/petri dish). The medium was cultured at 37° C. for 48 hours, and examined visually for colony formation.
Each solution prepared in Example 1, 2, 3-c, 3-f, and 3-j was diluted with distilled water for injection (Hikari pharmaceutical company) so as to obtain a solution of peroxycarboxylic acid at a concentration of 40 mM, which was used as composition 1, 2, 3, 24, and 28. The compositions were evaluated for their antimicrobial activity using the above described method. Aqueous hydrogen peroxide which contains hydrogen peroxide at a higher concentration than the hydrogen peroxide concentration of the above diluted solutions was separately evaluated in a similar manner, and results are also shown in Table 1.

[3] = Stability Evaluation 2: pH dependency of peroxycarboxylic acid concentration; type: physicochemical; details: 80 mM solution, FIG. 1
Description: (§1) A aqueous composition of the peroxycarboxylic acid which was obtained in the above described Synthesis of compound 3 (1.6 M, 100 ml) was diluted by addition of water (50 ml), and the mixture was left at 25° C. for 7 days. Quantification was conducted by potassium iodide/sodium thiosulfate titration as described in Example 1.
The aqueous composition was diluted with water to adjust the peroxycarboxylic acid concentration at 80 mM. Three solutions of pH 1.7, 3.0, and 5.0 were prepared, and peroxycarboxylic acid concentration was quantified by potassium iodide/sodium thiosulfate titration as described in Example 1 at a constant time intervals. The pH was adjusted by addition of dipotassium hydrogen phosphate. Assuming that peroxycarboxylic acid concentration of 80 mM is 100%, changes in peroxycarboxylic acid concentration are shown in FIG. 1.

[4] = Judgment whether the composition meets the criteria of the fifth class of hazardous material in the Fire Defense Law (thermal analysis, pressure container test); details: aqueous composition: Compound 3 7% w/w, hydrogen peroxide 13% w/w, 3-propoxypropionic acid 32% w/w, water 48% w/w
Description: as §1, with “mixed with” for “diluted by addition of”, “ml) for dilution,” for “ml),”, “14 days. The solution was further kept at 4° C. for 10” for “7”
The above aqueous composition was subjected to judgment whether or not the composition meets the criteria of the fifth class of hazardous material in the Fire Defense Law.

[5] = Stability Evaluation 1: peracid concentration after mixing carboxylic acid and 50% aqueous hydrogen peroxide (potassium iodide/sodium thiosulfate titration); type: physicochemical; details: for peracid concentration in composition, 3 days after mixing: day 3; for peracid concentration in composition, 6 days after mixing: day 6; for peracid concentration in composition, 22 days after mixing: day 22
Source text: A carboxylic acid (30 mmol) and 50% aqueous hydrogen peroxide (45 mmol) were mixed, and concentration of generated peracid was quantified by potassium iodide/sodium thiosulfate titration as described in Example 1 at a constant time interval. As the carboxylic acid, 3-methoxypropionic acid and 3-ethoxypropionic acid were used. As a control for comparison, methoxyacetic acid was used.
Numbers in Table 3 indicates peracid concentration (mM) in compositions.

[6] = system: Spores of Bacillus subtilis IFO3134; experiment: Evaluation of antimicrobial activity against spores (liquid culture and agar culture after a given reaction time); type: cell-based; details: Table 2, Acecide, 40 mM peracetic acid
[7] = carboxylic acid 30 mmol + 50% aqueous hydrogen peroxide 45 mmol
[8] = Table 2, Acecide, 40 mM peracetic acid

Structure (SMILES): O=CCCCC=O [glutaraldehyde]
- sterilizing effect to spores (spores): weak sterilizing effect to spores

Structure (SMILES): CCC(=O)OO [peroxypropionic acid]
- sterilizing action ([1]; J. Hyg. Epid. Microbiol. Immun., 9, pp. 220-226 (1965)): effective sterilizing action

Structure (SMILES): O=C(CCOCCCl)OO [Compound 28]
- colony formation, 15 sec ([2]; peroxycarboxylic acid 40 mM): +
- colony formation, 1 min ([2]; peroxycarboxylic acid 40 mM): +
- colony formation, 5 min ([2]; peroxycarboxylic acid 40 mM): −
- bacterial proliferation, 15 sec ([2]; peroxycarboxylic acid 40 mM): +
- bacterial proliferation, 1 min ([2]; peroxycarboxylic acid 40 mM): +
- bacterial proliferation, 5 min ([2]; peroxycarboxylic acid 40 mM): −

Structure (SMILES): CCOCCCC(=O)OO [Compound 24]
- colony formation, 15 sec ([2]; peroxycarboxylic acid 40 mM): +
- colony formation, 1 min ([2]; peroxycarboxylic acid 40 mM): +
- colony formation, 5 min ([2]; peroxycarboxylic acid 40 mM): −
- bacterial proliferation, 15 sec ([2]; peroxycarboxylic acid 40 mM): +
- bacterial proliferation, 1 min ([2]; peroxycarboxylic acid 40 mM): +
- bacterial proliferation, 5 min ([2]; peroxycarboxylic acid 40 mM): −

Structure (SMILES): O=C(CCOCCO)OO [reference compound]
- antimicrobial activity compared with Composition 1, Composition 2 ([2]; evaluated in a similar manner to Example 4): lower than that of Composition 1, Composition 2 or the like

Structure (SMILES): CCCOCCC(=O)OO [Compound 3, peroxy-3-propoxypropionic acid]
- change in peroxycarboxylic acid concentration (storage stability), pH lower than 2 ([3]; pH 1.7): a decrease in peroxycarboxylic acid concentration was faster
- storage stability, pH 3.0 ([3]; pH 3.0): significantly high storage stability
- change in peroxycarboxylic acid concentration (storage stability), pH 5 or higher ([3]; pH 5.0): a decrease in peroxycarboxylic acid concentration was faster
- classification as fifth class of hazardous material in the Fire Defense Law [4]: did not classified in the fifth class of hazardous material
- pressure container test result [4]: rank 3
- thermal analysis result [4]: no hazardous
- colony formation, 15 sec ([2]; peroxycarboxylic acid 40 mM): +
- colony formation, 1 min ([2]; peroxycarboxylic acid 40 mM): +
- bacterial proliferation, 15 sec ([2]; peroxycarboxylic acid 40 mM): +
- bacterial proliferation, 1 min ([2]; peroxycarboxylic acid 40 mM): +
- bacterial proliferation, 5 min ([2]; peroxycarboxylic acid 40 mM): −

Structure (SMILES): COCC(=O)OO [peroxy-methoxyacetic acid, reference compound]
- stability: change of peracid concentration with passage of time (in words) [5]: unstable
- peracid concentration in composition, 3 days after mixing [5, 7]: 530 mM
- peracid concentration in composition, 6 days after mixing [5, 7]: 540 mM
- peracid concentration in composition, 10 days after mixing ([5]; carboxylic acid 30 mmol + 50% aqueous hydrogen peroxide 45 mmol, day 10): 380 mM
- peracid concentration in composition, 14 days after mixing ([5]; carboxylic acid 30 mmol + 50% aqueous hydrogen peroxide 45 mmol, day 14): 340 mM
- peracid concentration in composition, 24 days after mixing ([5]; carboxylic acid 30 mmol + 50% aqueous hydrogen peroxide 45 mmol, day 24): 210 mM
- antibacterial effect compared with peracetic acid ([1]; J. Molecular Catalysis B: Enzymatic, 19-20, pp. 499-505 (2002)): weaker antibacterial effect than that of peracetic acid

Structure (SMILES): COCCC(=O)OO [Compound 1, 3-methoxyperoxypropionic acid]
- peracid concentration in composition, 3 days after mixing [5, 7]: 160 mM
- peracid concentration in composition, 5 days after mixing ([5]; carboxylic acid 30 mmol + 50% aqueous hydrogen peroxide 45 mmol, day 5): 250 mM
- peracid concentration in composition, 22 days after mixing [5, 7]: 650 mM
- stability: change of peracid concentration with passage of time (in words) ([5]; summary of Table 3): any decrease in peracid amount was not observed
- colony formation, 15 sec ([2]; peroxycarboxylic acid 40 mM): +
- colony formation, 1 min ([2]; peroxycarboxylic acid 40 mM): +
- colony formation, 5 min ([2]; peroxycarboxylic acid 40 mM): −
- bacterial proliferation, 15 sec ([2]; peroxycarboxylic acid 40 mM): +
- bacterial proliferation, 1 min ([2]; peroxycarboxylic acid 40 mM): +
- bacterial proliferation, 5 min ([2]; peroxycarboxylic acid 40 mM): −

Structure (SMILES): OO [Hydrogen peroxide, reference compound]
- colony formation, 15 sec ([2]; hydrogen peroxide 2000 mM): +
- colony formation, 1 min ([2]; hydrogen peroxide 2000 mM): +
- colony formation, 5 min ([2]; hydrogen peroxide 2000 mM): +
- bacterial proliferation, 15 sec ([2]; hydrogen peroxide 2000 mM): +
- bacterial proliferation, 1 min ([2]; hydrogen peroxide 2000 mM): +
- bacterial proliferation, 5 min ([2]; hydrogen peroxide 2000 mM): +

Structure (SMILES): CC(=O)OO [peracetic acid]
- colony formation, 15 sec [2, 8]: +
- bacterial proliferation, 15 sec [2, 8]: +
- colony formation, 1 min ([6]; Agar culture, reaction time 1 min): +
- colony formation, 5 min ([6]; Agar culture, reaction time 5 min): −
- bacterial proliferation, 1 min ([6]; Liquid culture, reaction time 1 min): +
- bacterial proliferation, 5 min ([6]; Liquid culture, reaction time 5 min): −

Structure (SMILES): CCOCCC(=O)OO [Compound 2, 3-ethoxyperoxypropionic acid]
- stability: change of peracid concentration with passage of time (in words) [5]: any decrease in peracid amount was not observed
- peracid concentration in composition, 3 days after mixing [5, 7]: 160 mM
- peracid concentration in composition, 6 days after mixing [5, 7]: 310 mM
- peracid concentration in composition, 22 days after mixing [5, 7]: 700 mM
- colony formation, 15 sec ([2]; peroxycarboxylic acid 40 mM): +
- colony formation, 1 min ([2]; peroxycarboxylic acid 40 mM): +
- colony formation, 5 min ([2]; peroxycarboxylic acid 40 mM): −
- bacterial proliferation, 15 sec ([2]; peroxycarboxylic acid 40 mM): +
- bacterial proliferation, 1 min ([2]; peroxycarboxylic acid 40 mM): +
- bacterial proliferation, 5 min ([2]; peroxycarboxylic acid 40 mM): −
